Results on 19 molecules are retold here after US8017612B2, “Piperazine compound and use thereof as a HCV polymerase inhibitor” (priority 2006, dated 2011).

The structures appear in SMILES notation.

Assay [1] addresses T1, HCV polymerase (NS5B) type 1b (Hepatitis C virus genotype 1b, UniProt P26663).
T1 construct: a region encoding NS5B (J Virol 1991 March, 65(3), 1105-13, 544 amino acids after deletion of 47 amino acids on the C-terminal); 6xHis (C); made in house; host or cells: Escherichia coli
Briefly: Assay of enzyme (HCV polymerase) inhibitory activity, type 1b enzyme. In kind it is biochemical, HCV BK strain (type 1b). The following applies: HCV polymerase inhibitory activity IC50, 1b, type 1b enzyme. In a few lines: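 Rxn: NS5B 1b (BK, ΔC47, His6) 0.5 μg/ml; substrate RNA 5 μg/ml; ATP/GTP/CTP 50 μM, UTP 2 μM + [5,6-3H]UTP; 20 mM Tris pH 7.5, 5 mM MgCl2, 50 mM NaCl, 1 mM EDTA/DTT. 25 °C, 60 min. Stop with TCA/pyrophosphate, filter, scintillation count; IC50 vs. untreated.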

The target in assay [2] is T2, HCV polymerase (NS5B) type 1a (Hepatitis C virus genotype 1a, UniProt P26664).
T2 construct: made in house; host or cells: Escherichia coli (by the 'similar method' of the 1b enzyme)
In words: Assay of enzyme (HCV polymerase) inhibitory activity, type 1a enzyme. It counts as biochemical, HCV type 1a (cloned from the blood of patients). As to conditions: HCV polymerase inhibitory activity IC50, 1a, type 1a enzyme. In a few lines: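 NS5B Δ47 C-term His6 (type 1a, 1.5 μg/ml); substrate RNA 5 μg/ml; ATP/GTP/CTP 50 μM, UTP 2 μM + [5,6-3H]UTP; Tris pH 7.5, MgCl2 5 mM; 25° C, 60 min. TCA/pyrophosphate stop, GF/B filter, scintillation. IC50 vs no-compound control.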

The term IC50 denotes the concentration needed to halve the response being measured. Turning to `O=C(O)c1ncc2sc(N3CCN(S(=O)(=O)c4ccc(OC(F)(F)F)cc4)[C@@H](C(=O)NCc4ccc(OC(F)(F)F)cc4)C3)nc2n1` [Example 1033, 2-[(R)-4-(4-trifluoromethoxy-benzenesulfonyl)-3-(4-trifluoromethoxy-benzylcarbamoyl)-piperazin-1-yl]-thiazolo[4,5-d]pyrimidine-5-carboxylic acid], the half-maximal inhibitory concentration (IC50) in assay [1] and in assay [2] was under 100 nM throughout.

Take `Nc1nnnc2nc(N3CCN(S(=O)(=O)c4ccc(OC(F)(F)F)cc4)[C@@H](C(=O)NCc4ccc(OC(F)(F)F)cc4)C3)sc12` [Example 1034, (R)-4-(4-amino-thiazolo[4,5-d][1,2,3]triazin-6-yl)-1-(4-trifluoromethoxy-benzenesulfonyl)-piperazine-2-carboxylic acid 4-trifluoromethoxy-benzylamide]: the IC50 in assay [1] and in assay [2] was under 100 nM each time.

As for `COc1nnnc2nc(N3CCN(S(=O)(=O)c4ccc(OC(F)(F)F)cc4)[C@@H](C(=O)NCc4ccc(OC(F)(F)F)cc4)C3)sc12` [Example 1035, (R)-4-(4-methoxy-thiazolo[4,5-d][1,2,3]triazin-6-yl)-1-(4-trifluoromethoxy-benzenesulfonyl)-piperazine-2-carboxylic acid 4-trifluoromethoxy-benzylamide], the IC50 in assay [1] and in assay [2] was under 100 nM throughout.

Take `N#Cc1ncc2sc(N3CCN(S(=O)(=O)c4ccc(OC(F)(F)F)cc4)[C@@H](C(=O)NCc4ccc(OC(F)F)cc4)C3)nc2n1` [Example 1036, (R)-4-(5-cyano-thiazolo[4,5-d]pyrimidin-2-yl)-1-(4-trifluoromethoxy-benzenesulfonyl)-piperazine-2-carboxylic acid 4-difluoromethoxy-benzylamide]: the IC50 in assay [1] and in assay [2] was under 100 nM throughout.

On to `CCn1ncc2sc(N3CCN(S(=O)(=O)c4ccc(C(F)(F)F)cc4)[C@@H](C(=O)NCc4ccc(OC(F)(F)F)cc4)C3)nc2c1=O` [Example 1037, (R)-4-(5-ethyl-4-oxo-4,5-dihydro-thiazolo[4,5-d]pyridazin-2-yl)-1-(4-trifluoromethyl-benzenesulfonyl)-piperazine-2-carboxylic acid 4-trifluoromethoxy-benzylamide], for which the IC50 in assay [1] and in assay [2] was under 100 nM in each case.

Consider `O=C(NCc1ccc(OC(F)(F)F)cc1)[C@H]1CN(c2nn3c(=O)cc(C(F)(F)F)nc3s2)CCN1S(=O)(=O)c1ccc(OC(F)(F)F)cc1` [Example 1038, (R)-4-(5-oxo-7-trifluoromethyl-5H-[1,3,4]thiadiazolo[3,2-a]pyrimidin-2-yl)-1-(4-trifluoromethoxy-benzenesulfonyl)-piperazine-2-carboxylic acid 4-trifluoromethoxy-benzylamide], for which the IC50 in assay [1] and in assay [2] was 100 to 1000 nM throughout.

Turning to `Cc1ncc2sc(N3CCN(S(=O)(=O)c4ccc(OC(F)(F)C(F)F)cc4)[C@@H](C(=O)NCc4ccc(OC(F)F)cc4)C3)nc2n1` [Example 1039, (R)-4-(5-methyl-thiazolo[4,5-d]pyrimidin-2-yl)-1-[4-(1,1,2,2-tetrafluoro-ethoxy)-benzenesulfonyl]-piperazine-2-carboxylic acid 4-difluoromethoxy-benzylamide], the IC50 in assay [1] and in assay [2] was under 100 nM throughout.

With `O=C(NCc1ccc(OC(F)F)cc1F)[C@H]1CN(c2nc3nc(C4CC4)ncc3s2)CCN1S(=O)(=O)c1ccc(C(F)(F)F)cc1` [Example 1040, (R)-4-(5-cyclopropyl-thiazolo[4,5-d]pyrimidin-2-yl)-1-(4-trifluoromethyl-benzenesulfonyl)-piperazine-2-carboxylic acid 4-difluoromethoxy-2-fluoro-benzylamide], the IC50 in assay [1] and in assay [2] was under 100 nM throughout.

For `CN(C)C(=O)c1ncc2sc(N3CCN(S(=O)(=O)c4ccc(OC(F)(F)F)cc4)[C@@H](C(=O)NCc4ccc(OC(F)(F)F)cc4)C3)nc2n1` [Example 1041, 2-[(R)-4-(4-trifluoromethoxy-benzenesulfonyl)-3-(4-trifluoromethoxy-benzylcarbamoyl)-piperazin-1-yl]-thiazolo[4,5-d]pyrimidine-5-carboxylic acid dimethylamide], the 50% inhibitory concentration (IC50) in assay [1] and in assay [2] was under 100 nM throughout.

With `O=C(NCc1ccc(OC(F)F)cc1F)[C@H]1CN(c2nc3nc(C(F)(F)F)ncc3s2)CCN1S(=O)(=O)c1ccc(C(F)(F)F)cc1` [Example 1042, (R)-1-(4-trifluoromethyl-benzenesulfonyl)-4-(5-trifluoromethyl-thiazolo[4,5-d]pyrimidin-2-yl)-piperazine-2-carboxylic acid 4-difluoromethoxy-2-fluoro-benzylamide], the half-maximal inhibitory concentration (IC50) in assay [1] and in assay [2] was under 100 nM each time.

Regarding `COCc1ncc2sc(N3CCN(S(=O)(=O)c4ccc(OC(F)(F)F)cc4)[C@@H](C(=O)NCc4ccc(OC(F)(F)F)cc4)C3)nc2n1` [Example 1043, (R)-4-(5-methoxymethyl-thiazolo[4,5-d]pyrimidin-2-yl)-1-(4-trifluoromethoxy-benzenesulfonyl)-piperazine-2-carboxylic acid 4-trifluoromethoxy-benzylamide], the IC50 in assay [1] and in assay [2] was under 100 nM in each case.

`O=C(NCc1ccc(OC(F)F)cc1F)[C@H]1CN(c2nc3nc(C(F)(F)F)ncc3s2)CCN1S(=O)(=O)c1ccc(OC(F)(F)F)cc1` [Example 1044, (R)-1-(4-trifluoromethoxy-benzenesulfonyl)-4-(5-trifluoromethyl-thiazolo[4,5-d]pyrimidin-2-yl)-piperazine-2-carboxylic acid 4-difluoromethoxy-2-fluoro-benzylamide]: the IC50 in assay [1] and in assay [2] was under 100 nM throughout.

Turning to `O=C(NCc1ccc(OC(F)F)cc1F)[C@H]1CN(c2nc3nc(C4CC4)ncc3s2)CCN1S(=O)(=O)c1ccc(OC(F)(F)F)cc1` [Example 1045, (R)-4-(5-cyclopropyl-thiazolo[4,5-d]pyrimidin-2-yl)-1-(4-trifluoromethoxy-benzenesulfonyl)-piperazine-2-carboxylic acid 4-difluoromethoxy-2-fluoro-benzylamide], the IC50 in assay [1] and in assay [2] was under 100 nM throughout.

On to `CNC(=O)c1ncc2sc(N3CCN(S(=O)(=O)c4ccc(OC(F)(F)F)cc4)[C@@H](C(=O)NCc4ccc(OC(F)(F)F)cc4)C3)nc2n1` [Example 1046, 2-[(R)-4-(4-trifluoromethoxy-benzenesulfonyl)-3-(4-trifluoromethoxy-benzylcarbamoyl)-piperazin-1-yl]-thiazolo[4,5-d]pyrimidine-5-carboxylic acid methylamide], for which the IC50 in assay [1] and in assay [2] was under 100 nM in each case.

Consider `CC(C)(O)c1ncc2sc(N3CCN(S(=O)(=O)c4ccc(OC(F)(F)F)cc4)[C@@H](C(=O)NCc4ccc(OC(F)(F)F)cc4)C3)nc2n1` [Example 1047, (R)-4-[5-(1-hydroxy-1-methyl-ethyl)-thiazolo[4,5-d]pyrimidin-2-yl]-1-(4-trifluoromethoxy-benzenesulfonyl)-piperazine-2-carboxylic acid 4-trifluoromethoxy-benzylamide], for which the concentration for half-maximal inhibition (IC50) in assay [1] and in assay [2] was under 100 nM each time.

For the molecule `CC(=O)c1ncc2sc(N3CCN(S(=O)(=O)c4ccc(OC(F)(F)F)cc4)[C@@H](C(=O)NCc4ccc(OC(F)(F)F)cc4)C3)nc2n1` [Example 1048, (R)-4-(5-acetyl-thiazolo[4,5-d]pyrimidin-2-yl)-1-(4-trifluoromethoxy-benzenesulfonyl)-piperazine-2-carboxylic acid 4-trifluoromethoxy-benzylamide], the IC50 in assay [1] and in assay [2] was under 100 nM throughout.

Turning to `O=C(NCc1ccc(OC(F)(F)F)cc1)[C@H]1CN(c2nn3c(C(F)(F)F)cc(=O)nc3s2)CCN1S(=O)(=O)c1ccc(OC(F)(F)F)cc1` [Example 1049, (R)-4-(7-oxo-5-trifluoromethyl-7H-[1,3,4]thiadiazolo[3,2-a]pyrimidin-2-yl)-1-(4-trifluoromethoxy-benzenesulfonyl)-piperazine-2-carboxylic acid 4-trifluoromethoxy-benzylamide], the IC50 in assay [1] and in assay [2] was under 100 nM throughout.

Consider `COc1ccc2nc(N3CCN(S(=O)(=O)c4ccc(OC(F)(F)F)cc4)[C@@H](C(=O)NCc4ccc(OC(F)(F)F)cc4)C3)sc2n1` [Example 1050, (R)-4-(5-methoxy-thiazolo[5,4-b]pyridin-2-yl)-1-(4-trifluoromethoxy-benzenesulfonyl)-piperazine-2-carboxylic acid 4-trifluoromethoxy-benzylamide], for which the IC50 in assay [1] and in assay [2] was 100 to 1000 nM throughout.

`Cc1ncc2sc(N3CCN(S(=O)(=O)c4ccc(OC(F)(F)C(F)F)cc4)[C@@H](C(=O)NCc4ccc(OC(F)(F)F)cc4)C3)nc2n1` [Example 1051, (R)-4-(5-methyl-thiazolo[4,5-d]pyrimidin-2-yl)-1-[4-(1,1,2,2-tetrafluoro-ethoxy)-benzenesulfonyl]-piperazine-2-carboxylic acid 4-trifluoromethoxy-benzylamide]: the IC50 in assay [1] and in assay [2] was under 100 nM in each case.
